Among the data in ChEMBL document CHEMBL5352445, “Design and synthesis of functionalized 4-aryl-Catechol derivatives as new antiinflammtory agents with in vivo efficacy” (Eur J Med Chem, 2022) are IC50, Activity and EC50 values, retold here.

Activity calls are given as the source filed them. The rule behind the calls is not given here.

Assay [1] has as its target T1, Polyunsaturated fatty acid 5-lipoxygenase (Homo sapiens, UniProt P09917).
T1 sequence (P09917 whole entry): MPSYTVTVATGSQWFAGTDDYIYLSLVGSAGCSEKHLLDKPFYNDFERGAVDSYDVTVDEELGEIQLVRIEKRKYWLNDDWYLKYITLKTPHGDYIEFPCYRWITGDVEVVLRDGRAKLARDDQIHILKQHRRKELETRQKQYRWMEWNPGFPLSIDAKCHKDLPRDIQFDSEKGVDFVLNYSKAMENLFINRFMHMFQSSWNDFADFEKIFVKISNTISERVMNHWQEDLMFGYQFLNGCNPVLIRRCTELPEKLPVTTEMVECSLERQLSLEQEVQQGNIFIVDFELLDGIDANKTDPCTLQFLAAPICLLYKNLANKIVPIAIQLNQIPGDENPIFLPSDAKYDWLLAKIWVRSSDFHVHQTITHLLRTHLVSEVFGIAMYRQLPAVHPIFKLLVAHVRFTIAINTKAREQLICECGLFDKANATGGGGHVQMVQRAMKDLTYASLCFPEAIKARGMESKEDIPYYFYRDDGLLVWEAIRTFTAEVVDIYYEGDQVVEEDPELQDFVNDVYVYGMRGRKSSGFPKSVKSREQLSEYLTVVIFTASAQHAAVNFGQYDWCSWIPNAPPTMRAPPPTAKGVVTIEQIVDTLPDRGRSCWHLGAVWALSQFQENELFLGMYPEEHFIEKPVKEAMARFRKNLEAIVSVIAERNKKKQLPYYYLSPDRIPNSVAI
In words: Inhibition of 5-LOX in human PMNL cells. It counts as cell-based.

For assay [2], the target named is T1, Polyunsaturated fatty acid 5-lipoxygenase. In words: Inhibition of recombinant human 5-lipoxygenase expressed in Escherichia coli BL21 using arachidonic acid as substrate preincubated for 5 to 10 mins with compound followed by substrate addition and measured after 10 mins by HPLC analysis.
For assay [3] the target is unchanged. In words: Inhibition of 5-lipoxygenase in human PMNL cells using arachidonic acid as substrate preincubated with compound for 15 mins followed by A23187 and substrate addition and measured after 10 mins by HPLC analysis. It is filed as cell-based.
Assay [4] concerns the target T2, Polyunsaturated fatty acid lipoxygenase ALOX12 (Homo sapiens) (UniProt P18054).
T2 sequence (whole entry): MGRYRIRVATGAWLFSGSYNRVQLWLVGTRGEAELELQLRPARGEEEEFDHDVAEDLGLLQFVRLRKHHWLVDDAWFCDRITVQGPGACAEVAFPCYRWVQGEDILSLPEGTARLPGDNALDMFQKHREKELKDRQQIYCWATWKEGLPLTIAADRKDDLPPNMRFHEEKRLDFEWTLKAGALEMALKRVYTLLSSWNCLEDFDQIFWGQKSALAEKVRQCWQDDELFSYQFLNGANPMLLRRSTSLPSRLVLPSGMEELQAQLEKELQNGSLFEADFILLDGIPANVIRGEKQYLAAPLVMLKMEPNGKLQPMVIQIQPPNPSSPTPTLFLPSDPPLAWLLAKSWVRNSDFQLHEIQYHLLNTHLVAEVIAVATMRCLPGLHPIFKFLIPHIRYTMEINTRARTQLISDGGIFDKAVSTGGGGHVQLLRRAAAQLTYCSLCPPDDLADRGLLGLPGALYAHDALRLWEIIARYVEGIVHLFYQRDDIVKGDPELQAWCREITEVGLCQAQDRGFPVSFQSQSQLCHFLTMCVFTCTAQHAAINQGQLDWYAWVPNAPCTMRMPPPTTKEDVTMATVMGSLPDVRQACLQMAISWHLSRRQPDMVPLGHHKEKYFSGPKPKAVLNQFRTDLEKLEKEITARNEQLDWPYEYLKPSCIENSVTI
In words: Inhibition of 12-lipoxygenase in human PMNL cells using arachidonic acid as substrate assessed as residual activity at 10 uM preincubated with compound for 15 mins followed by A23187 and substrate addition and measured after 10 mins by HPLC analysis relative to control. It is filed as cell-based. The following applies: time 25.0 min.

The target of assay [5] is T3, Polyunsaturated fatty acid lipoxygenase ALOX15 (Homo sapiens) (UniProt P16050).
T3 sequence (whole entry): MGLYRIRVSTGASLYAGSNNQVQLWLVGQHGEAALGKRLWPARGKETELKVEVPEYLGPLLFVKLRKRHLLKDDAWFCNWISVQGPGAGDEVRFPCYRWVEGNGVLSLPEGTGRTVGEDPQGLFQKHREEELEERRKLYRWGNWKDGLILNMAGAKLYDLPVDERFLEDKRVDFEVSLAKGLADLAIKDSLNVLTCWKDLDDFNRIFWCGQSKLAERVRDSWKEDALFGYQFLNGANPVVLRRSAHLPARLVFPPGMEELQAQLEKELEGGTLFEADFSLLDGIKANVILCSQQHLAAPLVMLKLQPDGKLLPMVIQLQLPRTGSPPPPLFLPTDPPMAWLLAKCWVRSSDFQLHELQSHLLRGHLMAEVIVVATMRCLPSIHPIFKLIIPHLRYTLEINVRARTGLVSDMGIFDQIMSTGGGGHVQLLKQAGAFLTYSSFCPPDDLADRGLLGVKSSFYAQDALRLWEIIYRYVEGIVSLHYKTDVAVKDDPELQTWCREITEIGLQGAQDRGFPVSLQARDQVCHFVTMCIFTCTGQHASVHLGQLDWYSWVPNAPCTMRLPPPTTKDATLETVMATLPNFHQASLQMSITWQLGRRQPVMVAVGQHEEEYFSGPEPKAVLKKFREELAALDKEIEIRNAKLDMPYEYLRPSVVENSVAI
In words: Inhibition of 15-lipoxygenase in human PMNL cells using arachidonic acid as substrate assessed as residual activity at 10 uM preincubated with compound for 15 mins followed by A23187 and substrate addition and measured after 10 mins by HPLC analysis relative to control. The settings on record: time 25.0 min. It is filed as cell-based.

The nature of assay [6]: Antioxidant activity assessed as DPPH radical scavenging activity by ultraviolet spectrophotometric analysis. It is filed as functional.
The nature of assay [7]: Antioxidant activity assessed as quercetin equivalent of Ferric ion TPTZ reducing activity incubated for 6 mins by FRAP assay. It counts as functional.
The target in assay [8] is T3, Polyunsaturated fatty acid lipoxygenase ALOX15 (Homo sapiens). In words: Inhibition of 15-lipoxygenase in human PMNL cells using arachidonic acid as substrate assessed as residual activity at 1 uM preincubated with compound for 15 mins followed by A23187 and substrate addition and measured after 10 mins by HPLC analysis relative to control. It is filed as cell-based. The following applies: time 25.0 min.

Assay [9] relates to Mus musculus. In words: Antiinflammatory activity in carrageenan induced mouse paw edema model assessed as reduction in hind paw swelling at 0.1 to 10 mg/kg, ip preadministered with compound for 30 mins followed by carrageenan administration and measured upto 72 hrs by hydroplethismometer. It is filed as functional, organism-based. The following applies: dose 0.1-10 mg/kg, time <= 72.5 hrs.

In assay [10] the test system is Mus musculus. In words: Antiinflammatory activity against zymosan-induced air pouch mouse model assessed as inhibition of cell migration at 0.1 mg/kg, ip preadministered with compound for 30 mins followed by sterile air injection three days once for 6 days and measured 4 hrs after zymosan administration by optical microscopic analysis. The settings on record: time 148.5 hrs. It counts as functional, organism-based.

Assay [11] has as its system Mus musculus. In words: Anti-inflammatory activity against OVA-sensitized isolated perfused lung mouse model assessed as reduction in Ach-induced bronchoconstriction at 0.1 to 1 mg/kg, ip preadministered with compound for 30 mins followed by OVA challenge and measured 24 hrs after last aerosolized OVA challenge. It is filed as functional, organism-based. The following applies: dose 0.1-1 mg/kg, time 24.5 hrs.

Assay [12] deals with T2, Polyunsaturated fatty acid lipoxygenase ALOX12 (Homo sapiens). In words: Inhibition of 12-lipoxygenase in human PMNL cells using arachidonic acid as substrate assessed as residual activity at 1 uM preincubated with compound for 15 mins followed by A23187 and substrate addition and measured after 10 mins by HPLC analysis relative to control. It counts as cell-based. The following applies: time 25.0 min.

With `COC1=CC(=O)C(O)=C(C[C@]2(C)CC[C@@]3(C)C(C)=CCC[C@@H]3[C@@H]2C)C1=O`, the IC50 in assay [1] came to 10 µM.
Turning to `Oc1ccc(-c2ccccc2)cc1O`, the IC50 in assay [2] turned out to be 0.05 µM; in [3] it was 0.47 µM. Further, the Activity in [4] was determined as 86.1%; in assay [5], 112%. In addition, the EC50 in assay [6] was determined as 46 µM; in assay [7], 190 µM.
As for `Oc1ccc(-c2cccc3c2sc2ccccc23)cc1O`, the values for the IC50 in [2] and in assay [3] were 0.007 µM and 0.25 µM, respectively. Besides, the figures for the Activity in assay [4] and in assay [5] were 71.5% and 70.5%, respectively. Besides, the EC50 in [6] amounted to 82 µM; in assay [7], 1380 µM.
`Oc1ccc(-c2cccc3c2Sc2ccccc2S3)cc1O`: the IC50 in assay [2] came to 0.008 µM; in assay [3], 0.23 µM.
Turning to `Oc1ccc(-c2c3ccccc3cc3ccccc23)cc1O`, the results for the IC50 in [2] and in [3] were 0.01 µM and 2.34 µM, respectively. Also, the Activity in assay [4] turned out to be 49.4%; in assay [8], 114%. In addition, the 50% effective concentration (EC50) in [6] stood at 51 µM; in assay [7], 890 µM.
As for `Oc1ccc(-c2ccc3ccccc3c2)cc1O`, the IC50 was 0.007 µM in assay [2] and 0.32 µM in assay [3]. Moreover, the Activity in assay [4] came to 93.8%; in assay [5] it was 57.2%. Besides, the EC50 in assay [6] was found to be 53 µM; in [7], 370 µM.
As for `CCOc1ccc2ccccc2c1-c1ccc(O)c(O)c1`, the IC50 in [2] came out at 0.01 µM; in [3], 0.27 µM. Also, the Activity amounted to 88.8% in assay [4] and 82.8% in assay [5]. Besides, the EC50 in assay [6] amounted to 37 µM; in assay [7], 970 µM.
For the molecule `Oc1ccc(-c2cccc3c2oc2ccccc23)cc1O`, the IC50 in assay [2] is 0.076 µM; in assay [3], 0.21 µM. In addition, the Activity in [4] turned out to be 69.5%; in assay [5], 70.3%. Also, the EC50 in assay [6] turned out to be 54 µM; in [7], 3080 µM. Further, the outcome in the assay with Mus musculus [9], in the assay on Mus musculus [10] and in the assay on Mus musculus [11] was Active.
In assay [1], `CCCCCCCCCCCC1=C(O)C(=O)C=C(O)C1=O` [EMBELIN] displayed an IC50 of 1.5 µM.
Consider `Oc1ccc(-c2cccc(Cl)c2)cc1O`, for which the IC50 in assay [2] worked out at 0.02 µM; in assay [3], 0.21 µM. The Activity in assay [4] was 86.6%; in [5], 84.1%. The results for the EC50 in assay [6] and in assay [7] were 74 µM and 610 µM, respectively.
In turn, `CCCCCCCCCCCCc1c(O)c(O)cc(OC)c1OC` registered an IC50 in assay [1] of 0.03 µM.
Take `Oc1ccc(-c2ccc(Cl)cc2)cc1O`: the half-inhibitory concentration (IC50) was 0.02 µM in assay [2] and 0.26 µM in [3]. For the same molecule, the results for the Activity in [4] and in [5] were 74.9% and 91.4%, respectively. Besides, the 50% effective concentration (EC50) in assay [6] was 64 µM; in [7], 560 µM.
In the case of `Oc1ccc(-c2cc3ccccc3o2)cc1O`, the IC50 in assay [2] was determined as 0.03 µM; in assay [3], 1.11 µM. Moreover, the Activity in assay [4] was 80.6%; in [5], 71.1%. Besides, the results for the EC50 in assay [6] and in assay [7] were 49 µM and 460 µM, respectively.
On to `Oc1ccc(-c2ccc(O)c(O)c2)cc1`, for which the values for the IC50 in assay [2] and in assay [3] were 0.21 µM and 1.33 µM, respectively. Further, the Activity was 75% in assay [4] and 80.8% in [5]. Further, the EC50 worked out at 275 µM in assay [6] and 650 µM in [7].
On to `CC(c1cc2ccccc2s1)N(O)C(N)=O` (stereo not drawn), for which, in the assay with Mus musculus [11], the result was Active.
On to `O=C1C=C(O)C(=O)C(CC2CCC3CCCCC3C2)=C1O` (stereo not drawn), for which, in assay [1], inhibition was half-maximal at 10 µM (IC50).
On the same count and under the same terms, as for `Oc1cc(O)c(O)c(CC2CCC3CCCCC3C2)c1O` (stereo not drawn), the figure is 4.4 µM.
`Oc1ccc(-c2ccc3c(c2)OCCO3)cc1O`: the concentration for half-maximal inhibition (IC50) is 0.04 µM in assay [2] and 0.24 µM in assay [3]. The values for the Activity in assay [4], in [5] and in [12] were 89.6%, 84.8% and 74%, respectively. Also, the figures for the EC50 in [6] and in assay [7] were 71 µM and 70 µM, respectively.
